Legend:
[1] = tested on: 5′-UTR and 3′-UTR of the target SMN2 mRNA; assay: Luciferase reporter gene screening assay in stable 293H cells (fLuc flanked by SMN2 5′-UTR and 3′-UTR); format: cell-based, human; settings: 7.5 μM test concentration, 24 hours, vs negative control (0.5% DMSO)
Method: Stable 293H cell lines containing the firefly luciferase (fLuc) gene flanked by one of SMN1 or SMN2 5′-UTR and 3′-UTR were cultured in DMEM medium supplemented with 10% FBS and 200 ug/mL hygromycin in Fisher T175 flasks. The cells were passaged every 4 days at 1:10 dilution. Cultures are kept in a 37° C. and 5% CO2 incubator. The cells were scaled-up over a three day period before performing the assay. Two confluent T175 flasks were split into twenty T175 flasks (1:10 dilution). Cells were harvested from each confluent flask by removing all of the media and adding 4 mL of warmed trypsin to dislodge the cells. After the cells were dislodged, 16 mL of selective media was added for a final volume of 20 mL. The cells were expanded by adding 2 mL of the harvested cells into ten new T175 flasks plus 25 ml, of selective media. The twenty new flasks are placed into the 37° C., 5% CO2 incubator. On the day the assay was performed, the media was removed from the flasks and 3 mL of warmed trypsin was added to dislodge the cells. After the cells were dislodged, 10 mL of nonselective media was to the flask. This was repeated for all twenty flasks and combined into one flask. 100 μL of the above cell culture plus 100 μL of Trypan Blue stain was counted on a hemocytometer. Cells were plated in the presence of 2 μL of a compound to be tested (at final concentration of 7.5 μM with 0.5% DMSO).
The firefly luciferase substrate used was Luc Lite Plus Packard #6016969. Luciferase activity was immediately assayed using a ViewLux Imaging system (Perkin Elmer).
The screening assay was performed by preparing a plates containing test compounds and controls, including wells that contained only vehicle or a high inhibitor concentration and wells that provided an 8-point dose response curve of puromycin, a non-specific standard control inhibitor. The cells were grown overnight in the presence of compounds or controls at 37° C. in 5% CO2. […] After 24 hours, the amount of luminescence was determined using a ViewLux Imaging system (Perkin Elmer). […]

[2] = CellTiter-Glo cytotoxicity assay, Huh7 cells; format: cell-based; settings: human, Huh7 hepatoblastoma cells, intermediate level of sensitivity
[3] = CellTiter-Glo cytotoxicity assay, MC-IXC cells; format: cell-based; settings: human, MC-IXC neuroblastoma cells, CellTiter-Glo (ATP)
Method: (§1) To evaluate cytotoxicity of the compounds in the neuroblastoma MC-IXC cell line, the CellTiter-Glo assay (Promega) was utilized. CellTiter-Glo determines the number of viable cells in culture based on quantification of the ATP present, which signals the presence of metabolically active cells. A reduction in cellular ATP is indicative of a cytotoxic or cytostatic effect. The compounds are tested in a 7-point dose response from 30 μM to 0.38 μM. Doxorubicin, a known cytotoxic compound, are used to address the sensitivity of the tested cell line. For relatively sensitive cell lines, such as U937 (a human monocyte cell line), the CC50 of doxorubicin ranges from 4 to 10 nM.

[4] = CellTiter-Glo cytotoxicity assay, U937 cells; format: cell-based; settings: human, U937 monocyte cells, relatively sensitive cell line
Method: as §1

SMILES	Ratio (fold increase in target mRNA (SMN2) compared to negative control) [1]	CC50 [2]	CC50 [3]	CC50 [4]
Cc1ccc2nc(-c3ccc(/N=C/c4ccc(Br)s4)cc3)sc2c1 [Cpd 1, (E)-N-((5-bromothiophen-2-yl)methylene)-4-(6-methylbenzo[d]thiazol-2-yl)aniline]	* (one star (*) represents active compounds with a fold increase ratio in a range greater than 1.3 up to 1.6)			
CC(C)(C)C(C)(O)C#Cc1ccccc1 (stereo not drawn) [Cpd 2, 3,4,4-trimethyl-1-phenylpent-1-yn-3-ol]	** (two stars (**) represent active compounds with a fold increase ratio in a range greater than 1.6 up to 1.8)			
c1ccc(-n2ncc3c(NC4CCCCC4)ncnc32)cc1 [Cpd 4, N-cyclohexyl-1-phenyl-1H-pyrazolo[3,4-d]pyrimidin-4-amine]	** (two stars (**) represent active compounds with a fold increase ratio in a range greater than 1.6 up to 1.8)			
COc1cccc2c1C(=O)c1c(O)c3c(c(O)c1C2=O)C[C@@](O)(C(=O)CO)C[C@@H]3O[C@H]1C[C@H](N)[C@H](O)[C@H](C)O1 [doxorubicin]		70 to 300 nM	12 nM	4 to 10 nM

— US9394539B1, “Survival motor neuron gene (SMN2) mRNA constructs for post-transcription regulation” (PTC Therapeutics, Inc., priority 2007, dated 2016)
